From ChEMBL document CHEMBL1201862, “PubChem BioAssay data set” (2004)
The source made the active and inactive calls. Rule as the data show it: actives have a measured IC50 and inactives only a lower limit.

Molecular target: Envelope glycoprotein gp160 (Human immunodeficiency virus 1, UniProt Q6QLK5)
Experiment: cell-free HIV fusion peptide-binding blockers – biochemical, uHTS, fluorescence dequenching, […] (AID 1986)

Sequence of Envelope glycoprotein gp160 (Q6QLK5 whole entry, the tested form may be a part): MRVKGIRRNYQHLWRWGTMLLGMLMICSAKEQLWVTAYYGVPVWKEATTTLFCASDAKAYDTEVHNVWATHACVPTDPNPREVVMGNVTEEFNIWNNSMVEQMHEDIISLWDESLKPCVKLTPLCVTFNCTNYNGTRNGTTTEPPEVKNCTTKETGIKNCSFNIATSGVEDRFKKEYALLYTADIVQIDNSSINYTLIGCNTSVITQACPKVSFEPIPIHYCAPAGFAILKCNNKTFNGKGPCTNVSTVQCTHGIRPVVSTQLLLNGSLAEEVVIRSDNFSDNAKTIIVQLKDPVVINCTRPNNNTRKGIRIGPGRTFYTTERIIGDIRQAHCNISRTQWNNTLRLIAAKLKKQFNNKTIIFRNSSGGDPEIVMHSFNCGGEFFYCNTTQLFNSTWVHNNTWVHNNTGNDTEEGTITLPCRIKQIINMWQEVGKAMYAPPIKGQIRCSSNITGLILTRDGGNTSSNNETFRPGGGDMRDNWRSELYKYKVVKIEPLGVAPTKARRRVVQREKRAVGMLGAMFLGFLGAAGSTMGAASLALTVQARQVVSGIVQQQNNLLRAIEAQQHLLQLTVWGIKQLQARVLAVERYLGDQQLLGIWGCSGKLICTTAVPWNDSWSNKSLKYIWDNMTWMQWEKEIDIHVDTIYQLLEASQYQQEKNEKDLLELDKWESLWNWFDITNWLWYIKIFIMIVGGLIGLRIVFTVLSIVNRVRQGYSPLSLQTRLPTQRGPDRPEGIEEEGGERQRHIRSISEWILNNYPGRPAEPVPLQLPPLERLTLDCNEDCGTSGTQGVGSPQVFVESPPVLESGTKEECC

## O=C(OCC1OC(n2ncc(=O)[nH]c2=O)C(OC(=O)c2ccccc2)C1OC(=O)c1ccccc1)c1ccccc1 (stereo unspecified)
  IC50: 23.8 µM (active)
